# Test results: patent publication US11370841B2, “Methods of treating fibroblast growth factor 19-mediated cancers and tumors” (NGM Biopharmaceuticals, Inc., priority 2016, dated 2022)
# Legend:
# [1] = tested on: primary mouse hepatocytes; experiment: In vitro pSTAT3 activation in primary mouse hepatocytes; format: cell-based
# Method: Primary mouse hepatocytes were isolated from 8-10 week old wild type mice (BioReclamation/IVT). Cells were diluted in attachment media, and cells were plated on collagen-coated 6-well plate (Becton Dickinson). Four hours later, cells were changed into M199 media supplemented with 10% FBS, 2 mM glutamine, 100 unit/ml penicillin, 100 unit/ml streptomycin, and cultured for 16 hours at 37° C. When indicated, 50 ng/ml FGF19 protein or 50 ng/ml mouse IL-6 (Peprotech) were added.
# Cell extracts were prepared in 50 mM Tris-Cl, PH 7.2, 150 mM NaCl, 1% NP-40, 0.1% SDS, 0.5% sodium deoxycholate supplemented with a protease inhibitor cocktail (Roche) and phosphatase inhibitors (Sigma, phosphatase inhibitor cocktail set 2 and set 3), and protein concentrations were determined by BCA protein assay (Thermo Scientific).
# Immunoblotting. Cell or tissue lysates were mixed with 4×SDS sample loading buffer (50 mM Tris-Cl, pH6.8, 2.5% SDS, urea, 4% β-mercaptoethanol), heated for 10 minutes at 95° C., and separated on 4-20% SDS-polyacrylamide gels (Life Technologies) in 1×MOPS running buffer. Proteins were transferred onto PVDF membranes (GE Healthcare). Membranes were blocked in TBST buffer (20 mM Tris-Cl, pH 7.6, 137 mM NaCl, 0.1% Tween-20) containing 5% non-fat dry milk for 1 hour at room temperature, and incubated with anti-pSTAT3^Y705, anti-total STAT3, anti-pERK, anti-total ERK, or anti-β-actin antibodies in blocking buffer at 4° C. overnight. Membranes were washed in TBST extensively, and bound proteins were detected with horseradish peroxidase-conjugated goat-anti-mouse IgG or goat-anti-rabbit IgG antibodies (GE Healthcare) for 1 hour at room temperature. […]
# To investigate an in vitro direct effect of FGF19 on STAT3 activation in isolated hepatocytes, pSTAT3^Y705 levels in primary cultures of hepatocytes upon FGF19 stimulation were analyzed by western blotting. […] Cell lysates were prepared at the indicated time points following FGF19 stimulation and analyzed for phosphorylation of the various proteins.
# [2] = tested on: primary human hepatocytes; experiment: In vitro BrdU incorporation in primary human hepatocytes; format: cell-based; details: purified primary human hepatocytes
# Method: FIGS. 2A-2E depict non-cell autonomous promotion of hepatocellular proliferation by FGF19. 11 week old mice (n=5 per group) were implanted with osmotic pumps releasing BrdU (8.5 mg/kg/day) and FGF19 protein (0.4 mg/kg/day). Livers were harvested 6 days post-implant. (FIG. 2A) Flow cytometry analysis of BrdU-labeled livers is shown. Representative histograms from hepatocytes stained with 7-ADD and anti-BrdU-APC are shown. (FIG. 2B) BrdU-positive hepatocytes as a percentage of total hepatocytes from vehicle (V)-treated (n=5) or FGF19-treated (n=5) mice were quantified by flow cytometry. (FIG. 2C) Shown are circulating FGF19 levels on day 6 post-implant of osmotic pumps. (FIG. 2D) Lack of proliferative effects of FGF19 on primary mouse hepatocytes. Primary cultures of hepatocytes isolated from mouse liver were incubated with recombinant FGF19 protein at the indicated concentrations for 48 hours and BrdU was added during the last 20 hours of incubation. BrdU incorporation was determined using a luminescence method. Mouse hepatocyte growth factor (mHGF) was included as a positive control. RLU, relative luminescence unit. (FIG. 2E) Lack of proliferative effects of FGF19 on primary human hepatocytes. Primary cultures of hepatocytes isolated from human liver were incubated with recombinant FGF19 protein. Human hepatocyte growth factor (hHGF) was included as a positive control. […]
# FGF19-mediated HCC = experiment: Tumorigenicity study in db/db mice (AAV-SOCS3, tofacitinib); format: in vivo
# Method: Blood parameters. Blood was collected from tail vein in un-anesthetized animals using microvette serum gel tubes (Sarstedt) for measurements of glucose, insulin, ALT, AST, ALP, bile acids, and FGF19 concentrations. Serum samples were prepared by centrifugation at 4° C. for 10 minutes at 6000 g after clotting at room temperature for 30 minutes. For HbA1c measurements, whole blood was collected after euthanasia by cardiac puncture into EDTA-tubes and quickly inverted multiple times. HbA1c (from whole blood samples) and liver enzyme (from serum samples) levels were measured on Cobas Integra 400 Clinical Analyzer (Roche Diagnostics). Serum FGF19 level was determined by FGF19 enzyme-linked immunosorbent assays (ELISA) (Biovendor). Serum insulin was assessed with ELISA kits from ALPCO. Concentrations of total bile acids in serum were determined using a 3β-hydroxysteroid dehydrogenase method (Diazyme). All assays were performed according to the manufacturers' instructions.
# Histology and immunohistochemistry. Livers were fixed in 10% neutral-buffered formalin and embedded in paraffin. 5 μm sections were deparaffinized in xylenes, rehydrated sequentially in graded ethanol (100%, 95%, 80%, 70%, 50%, 2 minutes each). Hematoxylin and eosin staining was performed using standard methods. For immunohistochemical studies, liver sections were subjected to antigen retrieval in a citrate-based Antigen Unmasking Solution (Vector Laboratories), and incubated for 30 minutes with 3% H2O2 at room temperature to block endogenous peroxidase activity. Sections were stained with primary antibodies against glutamine synthetase (Thermo Fisher), BrdU, PCNA, or STAT3 in PBS containing 10% goat serum. Biotinylated secondary antibodies, ABC-HRP reagent (Vectastain ABC kit, #PK-6100, Vector Laboratories) and di-amine-benzidine (DAB) colorimetric peroxidase substrate (#SK-4100, Vector Laboratories) were used for detection. When indicated, sections were counterstained with hematoxylin. Digital imaging microscopy was performed using a Leica DM4000 microscope equipped with DFC500 camera and a scanning platform (Leica). Images for the entire liver section were acquired by stitching 70-96 fields together using Surveyor program for morphometric analysis. Glutamine synthetase-positive tumor areas were quantified using Measure/Count/Area tool from ImagePro software.
# Tumorigenicity study in db/db mice. 11 to 12 week old db/db mice received a single intravenous dose of AAV containing either FGF19 or a control gene (green fluorescent protein). Body weight and blood glucose were monitored. […] Mice were euthanized 24 weeks post-AAV administration and examined for liver tumor formation by gross appearance and histology.
substance,measurement,setting,value
"FGF19: Fibroblast growth factor 19, mature human 194 amino acid polypeptide (SEQ ID NO: 1); recombinant protein or AAV-expressed",STAT3 phosphorylation (pSTAT3 Y705) by western blotting,"[1]; isolated mouse hepatocytes, 50 ng/ml",did not enhance STAT3 phosphorylation
same,Phosphorylation of ERK1 and ERK2,[1]; primary cultures of mouse hepatocytes,apparent
same,Proliferative effect (BrdU incorporation),[2],lack of direct proliferative effect
same,HbA1c,"FGF19-mediated HCC; AAV-expressed FGF19, in the absence or presence of SOCS3",normalized
same,Blood glucose levels,"FGF19-mediated HCC; AAV-expressed FGF19, irrespective of tofacitinib treatment",normalized
